Measurements: US20240139290A1, “METHODS OF TREATING A CARDIOVASCULAR ISCHEMIC EVENT” (Radius Health, Inc., priority 2021, published 2024)
“Also recorded” adds a separate entry of the source.

Columns and labels:
[1] = Obaidi et al. 2010; cited from earlier work
Akt = assay: Immunoblot of phospho-Akt in HL-1 cardiomyocytes (normoxia or simulated ischemia + 10 min reoxygenation); assay type: cell-based, murine; details: 2 h simulated ischemia + 10 min reoxygenation; 10 nM; vs vehicle; Example 3, FIG. 3B
Protocol: (§1) At 24 h after the onset of treatment, cells underwent 2 h of SI+10 min reoxygenation, while additional time- and treatment-matched normoxic cultures served as controls (n=3 independent replicates per group). At 10 min post-reoxygenation, cells were harvested and lysed in RIPA buffer containing 2 protease and phosphatase inhibitors. The lysates were centrifuged at 14,000×g for 15 min, and the resultant supernatant was collected and probed for the expression of ERK (total and phosphorylated: antibodies from Cell Signaling Technology Inc., Danvers, MA, USA), PI3 kinase/Akt (total and phosphorylated: Cell Signaling Technology Inc., Danvers, MA, USA) and GAPDH (Sigma Aldrich Inc., St. Louis, MO, USA) using standard methods Immunoreactive bands were identified by incubation with horseradish peroxidase (HRP)-conjugated secondary antibody, visualized using x-ray film, and quantified using the NIH ImageJ software. […] At 24 h after the onset of treatment, cells underwent either 2 h of SI+24 h reoxygenation or a time-matched period of normoxia (n=2 independent replicates per group). At 24 h following relief of SI, cell viability was quantified using the MTT assay as described in Example 1.

HL-1 cardiomyocytes [2] = assay: HL-1 cardiomyocyte viability (MTT assay) under normoxia or simulated ischemia-reperfusion; assay type: cell-based, murine
Protocol: HL-1 cardiomyocytes were grown to ˜80% confluence in 95% room air/5% CO2 at 37° C. in Claycomb medium supplemented with fetal bovine serum (10%), L-glutamine (2 mM), norepinephrine (0.1 mM), penicillin (100 U/mL) and streptomycin (100 μg/mL). The cardiomyocytes were then incubated for 24 hours with abaloparatide (0.1 nM, 1.0 nM, 10 nM, 100 nM) or vehicle control. At 24 hours after the onset of incubation, the cells were subjected to 2 hours of simulated ischemia (achieved by depletion of oxygen and nutrients), followed by 24 hours of reoxygenation. During simulated ischemia, Claycomb medium containing drug/placebo was replaced with drug-free hypoxia buffer at pH 6.6 (composed of NaCl ([…]), KCl (8 mM), KH2PO4 (1.2 mM), 1.25 mM MgSO4 (1.25 mM), CaCl2 (1.2 mM), NaHCO3 (6.25 mM), HEPES (20 mM), glucose (5.5 mM), 2-deoxy-D-glucose (20 mM), sodium lactate (5 mM): all ingredients from Sigma Aldrich, St. Louis, MO, USA) and the culture plates were sealed in a hermetic chamber with GasPak EZ Gas Generating Sachets (BD Biosciences, San Jose, CA, USA). Reoxygenation was achieved by removing the plates from the sealed chamber and exchanging the hypoxia buffer with serum-free Claycomb medium. Additional time- and treatment-matched normoxic cultures served as controls (n=4 independent replicates per group). Cell viability was quantified using the 3-(4,5-dimethythiazol-2-yl)-2,5-diphenyl tetrazolium bromide (MTT) assay.
At 24 hours after the onset of incubation, the cells were subjected to 2 hours of simulated ischemia (achieved by depletion of oxygen and nutrients), followed by 24 hours of reoxygenation. Additional time- and treatment-matched normoxic cultures served as controls. Cell viability was quantified using the 3-(4,5-dimethythiazol-2-yl)-2,5-diphenyl tetrazolium bromide (MTT) assay.
as §1
Twenty-four hours after the onset of treatment, cells underwent 2 hours of simulated ischemia followed by 24 hours of reoxygenation. Additional time- and treatment-matched normoxic cultures served as controls. Cell viability was quantified using the MTT assay.

ERK = assay: Immunoblot of phospho-ERK in HL-1 cardiomyocytes (normoxia or simulated ischemia + 10 min reoxygenation); assay type: cell-based, murine; details: for phospho-ERK expression with co-administration of PD98059: 5 μM PD98059, control, abaloparatide- and PTHrP-treated groups
Protocol: as §1
HL-1 cardiomyocytes were treated as described in Example 5, but were harvested at 10 minutes post-reoxygenation, lysed, and probed for phospho- and total ERK expression as detailed in Example 5.

[3] = human, in vivo, sc; cited from earlier work
[4] = clinical studies; cited from earlier work
HL-1 cardiomyocytes [5] = details: doxorubicin 2.5 μM for 24 hours; previously shown; cited from earlier work
[6] = simulated ischemia + 10 min reoxygenation, Example 6, FIG. 6B

## abaloparatide
[1]
  anabolic activity: potent anabolic activity
  bone resorption: decreased bone resorption
  calcium-mobilizing potential: less calcium-mobilizing potential
Akt
  expression of phospho-Akt (normalized to GAPDH): better preservation of phospho-Akt
HL-1 cardiomyocytes [2]; 2 h simulated ischemia + 24 h reoxygenation, 10 nM, Example 5, FIG. 5B
  HL-1 cell viability vs vehicle-controls: viability was better maintained
HL-1 cardiomyocytes [2]; 2 h simulated ischemia + 24 h reoxygenation, 10 and 100 nM, Example 4, FIG. 4B
  HL-1 cell viability vs vehicle-controls: viability was better-maintained
HL-1 cardiomyocytes [2]; 2 h simulated ischemia + 24 h reoxygenation, abaloparatide 0.1-100 nM, 24 h pre-incubation, Example 1, FIG. 1B
  HL-1 cell viability vs vehicle control: viability was better-maintained
HL-1 cardiomyocytes [2]; in vitro model of ischemia-reperfusion injury, summary statement
  efficacy of abaloparatide relative to PTHrP(1-36): slightly but significantly greater than that of PTHrP(1-36)
HL-1 cardiomyocytes [2]; in vitro model of lethal ischemia-reperfusion injury, summary statement
  viability of HL-1 cardiomyocyte cells: enhancement in viability
HL-1 cardiomyocytes [2]; normoxic conditions, abaloparatide 0.1-100 nM, 24 h incubation, Example 1, FIG. 1A
  HL-1 cell viability: no effect on HL-1 cell viability
HL-1 cardiomyocytes [2]; simulated ischemia-reperfusion, 10 nM peptide + 5 μM PD98059, Example 5, FIG. 5B
  protective effect on viability with co-administration of PD98059: attenuated by co-administration of PD98059; also recorded: attenuated the protective effect
HL-1 cardiomyocytes [2]; simulated ischemia-reperfusion, p<0.05 between groups, Example 4, FIG. 4B
  viability with 10 nM abaloparatide compared with other groups: greater than that achieved with 100 nM abaloparatide and 10 nM PTHrP(1-36)
HL-1 cardiomyocytes [2]; simulated ischemia-reperfusion, tested 0.1, 1.0, 10, 100 nM, Example 1, FIG. 1B
  concentration with greatest efficacy on viability: 10 nM
HL-1 cardiomyocytes [2]; summary statement on Examples 1-3
  HL-1 cardiomyocyte death caused by simulated ischemia-reperfusion: attenuated HL-1 cardiomyocyte death
ERK; 2 h simulated ischemia + 10 min reoxygenation, 10 nM, vs vehicle, Example 3, FIG. 3C
  expression of phospho-ERK (normalized to total ERK): augmented expression of phospho-ERK
ERK; simulated ischemia + 10 min reoxygenation, 10 nM, Example 6, FIG. 6B
  expression of phospho-ERK vs vehicle-controls: augmented expression phospho-ERK
ERK; [6]
  phospho-ERK expression with co-administration of PD98059: attenuated
[3]
  heart rate: modest and transient increases in heart rate
  heart rate relative to placebo: transient increases in heart rate
  incidence of palpitations relative to placebo: higher incidences of palpitations
  supine blood pressure: decreases in supine blood pressure

## CC[C@H](C)[C@H](NC(=O)[C@H](CCC(=O)O)NC(=O)[C@H](CO)NC(=O)[C@@H](NC(=O)[C@@H](N)CO)C(C)C)C(=O)N[C@@H](CCC(N)=O)C(=O)N[C@@H](CC(C)C)C(=O)N[C@@H](CCSC)C(=O)N[C@@H](Cc1cnc[nH]1)C(=O)N[C@@H](CC(N)=O)C(=O)N[C@@H](CC(C)C)C(=O)NCC(=O)N[C@@H](CCCCN)C(=O)N[C@@H](Cc1cnc[nH]1)C(=O)N[C@@H](CC(C)C)C(=O)N[C@@H](CC(N)=O)C(=O)N[C@@H](CO)C(=O)N[C@@H](CCSC)C(=O)N[C@@H](CCC(=O)O)C(=O)N[C@@H](CCCN=C(N)N)C(=O)N[C@H](C(=O)N[C@@H](CCC(=O)O)C(=O)N[C@@H](Cc1c[nH]c2ccccc12)C(=O)N[C@@H](CC(C)C)C(=O)N[C@@H](CCCN=C(N)N)C(=O)N[C@@H](CCCCN)C(=O)N[C@@H](CCCCN)C(=O)N[C@@H](CC(C)C)C(=O)N[C@@H](CCC(N)=O)C(=O)N[C@@H](CC(=O)O)C(=O)N[C@H](C(=O)N[C@@H](Cc1cnc[nH]1)C(=O)N[C@@H](CC(N)=O)C(=O)N[C@@H](Cc1ccccc1)C(=O)O)C(C)C)C(C)C [teriparatide]
[4]
  orthostatic hypotension: transient episodes of symptomatic orthostatic hypotension
  palpitations: palpitations
  tachycardia: tachycardia

## COc1cccc2c1C(=O)c1c(O)c3c(c(O)c1C2=O)C[C@@](O)(C(=O)CO)C[C@@H]3O[C@H]1C[C@H](N)[C@H](O)[C@H](C)O1 [doxorubicin]
HL-1 cardiomyocytes [5]
  HL-1 cardiomyocytes killed: ~50%

## COc1cccc(-c2cc(=O)c3ccccc3o2)c1N [PD98059]
ERK; [6]
  phospho-ERK expression with co-administration of PD98059: attenuated
